Here are results for five molecules from US20250205385A1, “SILICONE MATERIAL, SILICONE TUBE, IMPLANT, PHARMACEUTICAL COMPOSITION, AND TEST METHOD FOR AMOUNT OF DRUG RELEASED” (SHENYANG XINGHUA PHARMACEUTICAL TECHNOLOGY CO., LTD, priority 2022, published 2025).

≈ marks a conversion by molar mass, not a printed value. Like-named read-outs stand apart in the source and are kept apart here.

The conditions of data set [1]: cited from earlier work; for Solubility: in water.
Data set [2] in a line: Equilibrium solubility of gestodene bulk drug in water and normal saline, before and after micronization. It counts as physicochemical. The note with it: thermodynamic from solid, shaken 72 hours. The procedure: The prepared implant needs to be implanted in the subcutaneous tissue of the human upper arm, where the pH is close to neutral. Therefore, the release medium can be either water or normal saline. A supersaturated solution of the gestodene bulk drug in water and normal saline, both before and after micronization, was prepared. The solution was placed in a shaker and shaken for 72 hours. After shaking, the mixture was taken out and centrifuged, and the supernatant was filtered. The equilibrium solubility of the gestodene bulk drug in water and normal saline, both before and after micronization, was determined using high performance liquid chromatography. Based on the results, the appropriate release medium was selected.
In vitro release experiments were conducted on implants with different silicone tube wall thicknesses, medicinal core side areas, and drug particle sizes. Based on the in vitro release results, long-acting contraceptive implants with a daily drug release of 10-30 μg were prepared. The prepared implant was implanted in the subcutaneous tissue of the human upper arm, where the pH was close to neutral, allowing the release medium to be chosen between water and normal saline. A supersaturated solution of the gestodene bulk drug in water and normal saline, both before and after micronization, was prepared. The solution was placed in a shaker and shaken for 72 hours. After shaking, the mixture was taken out and centrifuged, and the supernatant was filtered. The equilibrium solubility of the gestodene bulk drug in water and normal saline, both before and after micronization, was determined using high performance liquid chromatography. Based on the results, the appropriate release medium was selected. Water was selected as the release medium for the in vitro release experiments. In the following experiments to investigate the in vitro release amount, the implant from Example 27 was subjected to depowdering pre-treatment, which involved adding 50 mL of anhydrous ethanol to a conical flask containing the implant, followed by ultrasonication for 1 minute. This process was repeated three times, after which 100 mL of distilled water was added and left overnight. The next day, the soaking solution was discarded, and the implant was placed in a shaker for in vitro release.

The conditions of data set [3]: cited from earlier work.

As to `CC(C)Cc1ccc(C(C)C(=O)O)cc1` (stereo not shown) [ibuprofen], in data set [1] (bulk drug), the Solubility is 60 µg/mL (≈ 291 µM) and the lipophilicity (LogP) is 3.72. In addition, the solubility in water in data set [1] was 60 µg/mL (≈ 291 µM).
With `Cc1nc2n(c(=O)c1CCN1CCC(c3noc4cc(F)ccc34)CC1)CCCC2O` (stereo not shown) [paliperidone], in data set [1] (bulk drug), the LogP is 3.02. In addition, the pKa in data set [1] (bulk drug) and in data set [1] was 7.72 throughout.
For `C#C[C@]1(O)C=C[C@H]2[C@@H]3CCC4=CC(=O)CC[C@@H]4[C@H]3CC[C@@]21CC` [gestodene], the solubility at 72 h is 2.71 ± 0.24 µg/mL (≈ 8.73 µM) in data set [2] (normal saline, saline or isotonic, drug particle size 2.81 μm (micronized), normal saline (NS)); 5.3 ± 0.58 µg/mL (≈ 17.1 µM) in data set [2] (normal saline, saline or isotonic, drug particle size 80.30 μm (unmicronized), normal saline (NS)); 4.11 ± 0.52 µg/mL (≈ 13.2 µM) in data set [2] (water or normal saline, drug particle size 2.81 μm (micronized), water); 5.64 ± 0.62 µg/mL (≈ 18.2 µM) in data set [2] (water or normal saline, drug particle size 80.30 μm (unmicronized), water). Besides, the bioavailability in data set [3] (background statement) is given as around 100%. Further, the “daily release sufficient to produce a contraceptive effect” value in data set [3] (humans, review of the literature) is 10 to 20 µg.
Consider `Cc1cnc(NC(=O)C2=C(O)c3ccccc3S(=O)(=O)N2C)s1` [meloxicam], for which, in data set [1] (bulk drug), the Solubility is 3.4 µg/mL (≈ 9.68 µM), the LogP was 3.35 and the pKa is listed as 4. Also, in data set [1], the pKa is 4 and the solubility in water was 3.4 µg/mL (≈ 9.68 µM).
Turning to `O=c1c(-c2ccc(O)cc2)coc2c([C@@H]3O[C@H](CO)[C@@H](O)[C@H](O)[C@H]3O)c(O)ccc12` [puerarin], in data set [1] (bulk drug), the Solubility was 4000 µg/mL (≈ 9610 µM), the lipophilicity (LogP) was −0.67 and the pKa is 6.45. Further, in data set [1], the pKa is on record as 6.45 and the solubility in water is 4000 µg/mL (≈ 9610 µM).

As usually defined, the Solubility is the concentration that dissolves in the medium under given conditions. The term LogP denotes a log measure of how a compound divides between an organic and an aqueous phase. What is called pKa is the negative logarithm of the acid dissociation constant. Usually solubility stands for how much of the substance goes into solution per volume. High values mean a readily soluble substance, low ones a poorly soluble substance. Usually bioavailability stands for the share of a dose that reaches the circulation, judged against a reference dose that is usually intravenous.
